Test results as given in PMC8467647, “Identification of Small Molecule Inhibitors against Staphylococcus aureus Dihydroorotase via HTS” (International Journal of Molecular Sciences, 2021).

T1: SaDHOase (Staphylococcus aureus, UniProt Q5HGN1)
T1 construct: The full-length SaDHOase was expressed and purified following the cloning of the SaDHO gene; His-SUMO with HRV 3C protease site (N, cleaved yes); made in house; host or cells: E. coli BL21 (DE3)
T1 sequence (Q5HGN1 1-424): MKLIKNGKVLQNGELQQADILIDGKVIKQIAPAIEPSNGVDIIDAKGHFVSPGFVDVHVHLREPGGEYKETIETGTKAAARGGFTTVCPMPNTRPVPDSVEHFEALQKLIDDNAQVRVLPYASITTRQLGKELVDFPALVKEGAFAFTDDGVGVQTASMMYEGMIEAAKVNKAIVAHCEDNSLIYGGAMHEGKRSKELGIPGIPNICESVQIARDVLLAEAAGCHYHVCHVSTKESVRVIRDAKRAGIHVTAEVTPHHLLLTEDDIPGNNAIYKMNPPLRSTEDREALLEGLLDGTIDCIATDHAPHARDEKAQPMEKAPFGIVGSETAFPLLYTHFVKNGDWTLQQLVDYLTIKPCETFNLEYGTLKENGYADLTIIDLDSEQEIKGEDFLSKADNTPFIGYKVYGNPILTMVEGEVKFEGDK


Tests used:
SaDHOase [1] = molecular target: T1, SaDHOase; test: SPR direct binding, steady-state affinity KD determination; details: compound alone, immobilized SaDHOase, 25 °C, steady-state affinity fit
Experimental: (§1) The KD was determined using the response units during the equilibration phase of each concentration of the compound. […] In order to determine the mechanism of action, competition SPR studies were done in the presence of high concentration of the substrate Ca-asp (KM = 110 µM) (Figure 3A). Dose-response curve of the tightest binder (5) is shown as an example (Figure 3C).
Purified histidine-tag cleaved DHOase was buffer exchanged to PBS (10 mM phosphate, pH 7.4, 2.7 mM KCl and 137 mM NaCl) for SPR. SPR was performed at 25 °C using a Biacore T200 instrument and a CM5 sensor chip (GE Healthcare). The flow channels were activated by a 1-ethyl-3-(3-dimethylaminopropyl) carbodiimide hydrochloride (EDC)/N-hydroxy succinimide (NHS) mixture. Flow channel 1 was left unmodified as a control. DHOase was diluted in 10 mM sodium acetate (pH 4.0) and immobilized to flow channels 2 and 3 at levels of 8596 RU and 8342 RU, respectively. Fragment solutions at 65 μM and 200 μM were applied to all three channels at a 30 μL/min flow rate. For KD determination, fragment solutions at increasing concentrations (0–400 μM at 2-fold dilution) were applied to all three channels at a 30 μL/min flow rate. The SPR binding buffer was PBS-P supplemented with 2% DMSO and 0.5 mM TCEP. All data was referenced with the blank channel RU values, and the sensorgrams were analyzed using Biacore T200 evaluation software v2.0.3. The response units at each concentration was measured during the equilibration phase for the steady-state affinity fittings.
(§2) For KD determination of analogs, DHOase was immobilized to flow channels 2, 3 and 4 at levels of 10,160 RU, 12,072 RU and 11,358 RU, respectively. 1 mM Ca-asp was additionally added to the binding buffer for a competition SPR. The sensorgrams were analyzed using BiaEvaluation software 2.0.3. All data was referenced to a blank channel RU signal prior to the fitting. The RU difference at each concentration was measured during the binding equilibration phase, and BiaEvaluation software v2.0.3 was used to fit the data to determine KD values. The RU values and corresponding concentrations were plotted using the single hyperbolic Function (1), where y is the response; ymax is the maximum response, and x is the compound concentration. (1) y=ymax·x/(KD+x)

SaDHOase [2] = molecular target: T1, SaDHOase; test: Competition SPR in the presence of 1 mM substrate Ca-asp; type: binding
Experimental: as §1, §2

[3] = substrate: NC(=O)N[C@@H](CC(=O)O)C(=O)O; test: SaDHOase enzyme activity (substrate KM); type: biochemical, Staphylococcus aureus; details: other: substrate of SaDHOase
Experimental: The full-length SaDHOase was expressed and purified following the cloning of the SaDHO gene according to previously published methods. Purified SaDHOase enzyme activity was measured and confirmed by two methods, one by observing the production of Ca-asp (reverse reaction) at a UV-Vis absorption of 540 nm (TSC-DAMO method) and the other with continuously monitoring reduction of DHO at 230 nm (Figure 1A). Enzyme rates were calculated using the measured slopes, path length of 0.44 cm and the extinction coefficient (ε) of DHO at 230 nm, 1.17 mM^−1 cm^−1 [14].

Molecule	Kd (SaDHOase [1]) [µM]	further results
NC1C(=O)Nc2ccc(Br)cc21 (stereo not shown) [Compound 1]	205	Weakening of binding affinity in the presence of 1 mM Ca-asp (SaDHOase [2]; KD with 1 mM Ca-asp vs compound alone): ~ 2.8 fold
Cn1c(SCC#N)nc2ccccc2c1=O [Compound 2]	98	Effect of substrate Ca-asp on binding (mode of binding) (SaDHOase [2]; competition SPR, 1 mM Ca-asp): not affected by Ca-asp presence
Cc1ccccc1CN1CCCN(C)CC1 [Compound 3]	156	–
CCNC(=O)N1CCC(N)CC1 [Compound 4]	274	–
Cc1ccc(CN2CCC(O)CC2)cc1 [Compound 5]	48	–
OC1CCN(Cc2cccc(Cl)c2Cl)CC1 [Compound 6]	90 ± 4	–
Cc1ccccc1CN1CCC(O)CC1 [Compound 7]	41 ± 18	–
Cc1ccc(C)c(CN2CCC(O)CC2)c1 [Compound 8]	11 ± 5	–
CCc1ccc(CN2CCC(O)CC2)cc1 [Compound 9]	125 ± 20	–
Cc1cccc(CN2CCC(O)CC2)c1 [Compound 10]	> 400	KD (SaDHOase [1]): eliminates all bonding
OC1CCN(Cc2cccc(C(F)(F)F)c2)CC1 [Compound 11]	> 400	KD (SaDHOase [1]): eliminates all bonding
OC1CCN(Cc2ccc(C(F)(F)F)cc2)CC1 [Compound 12]	48 ± 24	–
Cc1ccc(CN2CCCC(O)C2)c(C)c1 (stereo not shown) [Compound 13]	77 ± 15	–
Cc1cccc(CN2CCCC(CO)C2)c1 (stereo not shown) [Compound 14]	38 ± 5	–
SaDHOase (Staphylococcus aureus subsp. aureus COL) (protein, The full-length SaDHOase was expressed and purified following the cloning of the SaDHO gene; His-SUMO with HRV 3C protease site (N, cleaved yes); made in house; host or cells: E. coli BL21 (DE3)) MKLIKNGKVLQNGELQQADILIDGKVIKQIAPAIEPSNGVDIIDAKGHFVSPGFVDVHVHLREPGGEYKETIETGTKAAARGGFTTVCPMPNTRPVPDSVEHFEALQKLIDDNAQVRVLPYASITTRQLGKELVDFPALVKEGAFAFTDDGVGVQTASMMYEGMIEAAKVNKAIVAHCEDNSLIYGGAMHEGKRSKELGIPGIPNICESVQIARDVLLAEAAGCHYHVCHVSTKESVRVIRDAKRAGIHVTAEVTPHHLLLTEDDIPGNNAIYKMNPPLRSTEDREALLEGLLDGTIDCIATDHAPHARDEKAQPMEKAPFGIVGSETAFPLLYTHFVKNGDWTLQQLVDYLTIKPCETFNLEYGTLKENGYADLTIIDLDSEQEIKGEDFLSKADNTPFIGYKVYGNPILTMVEGEVKFEGDK	–	Km [3]: 110 µM
